Reference: ChEMBL document CHEMBL1201862, “PubChem BioAssay data set” (2004)
Calls of active or inactive are those of the source.

Legend:
[1] = molecular target: DNA dC->dU-editing enzyme APOBEC-3A (Homo sapiens, UniProt P31941); assay: SAR analysis of small molecule inhibitors of APOBEC3A DNA Deaminase via a fluorescence-based single-stranded DNA deaminase assay.; format: functional; conditions: read-out: IC50_Mean
[2] = molecular target: DNA dC->dU-editing enzyme APOBEC-3G (Homo sapiens, UniProt Q9HC16); assay: inhibition of APOBEC3G ssDNA deamination – biochemical, fluorescence, single-stranded DNA substrate, SAR follow-up (AID 602136); format: functional; conditions: read-out: IC50_Mean
[3] = molecular target: G protein-coupled receptor kinase 5 (Homo sapiens, UniProt P34947); assay: Navigating the Kinome. Panel member name: GPRK5; format: functional
[4] = molecular target: Serine/threonine-protein kinase D2 (Homo sapiens, UniProt Q9BZL6); format: functional;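 note: measured against PRKD2 as one member of a kinome-wide kinase profiling panel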
[5] = molecular target: Protein kinase C gamma type (Homo sapiens, UniProt P05129); format: functional
[6] = molecular target: Mitogen-activated protein kinase kinase kinase 10 (Homo sapiens, UniProt Q02779); assay: Navigating the Kinome. Panel member name: MAP3K10; format: functional
[7] = molecular target: MAP kinase-activated protein kinase 3 (Homo sapiens, UniProt Q16644); format: functional;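 note: value comes from a kinome-wide profiling panel in which MAPKAPK3 is one of the panel members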
CHO-K1 = assay: (§1) Counterscreen for antagonists of the orexin 1 receptor (OX1R; HCRTR1): Homogeneous time resolved fluorescence (HTRF)-based cell-based dose response assay to identify antagonists of the parental CHO-K1 cell line. [Related pubchem assays (depositor defined):AID434989, AID435008, AID463079, AID485270, AID492963, AID492964, AID492965, AID493232, AID504699, AID504701]; format: functional; conditions: Cricetulus griseus
Orexin receptor type 2 [8] = molecular target: T1, Orexin receptor type 2 (Homo sapiens, UniProt O43614); assay: Counterscreen assay for antagonists of the orexin 1 receptor (OX1R; HCRTR1): Homogeneous Time Resolved Fluorescence (HTRF)-based cell-based dose response assay for antagonists of the orexin 2 receptor (OX2R; HCRTR2), run by assay provider.; format: functional
Orexin receptor type 2 [9] = molecular target: T1, Orexin receptor type 2; assay: Counterscreen assay for antagonists of the orexin 1 receptor (OX1R; HCRTR1): Fluorescence-based cell-based dose response assay for antagonists of the orexin 2 receptor (OX2R; HCRTR2), run by assay provider.; format: functional
[10] = molecular target: T2, Orexin/Hypocretin receptor type 1 (Homo sapiens, UniProt O43613); assay: Homogeneous Time Resolved Fluorescence (HTRF)-based cell-based high throughput dose response assay for antagonists of the orexin 1 receptor (OX1R; HCRTR1). [Related pubchem assays (depositor defined):AID434989, AID435008, AID463079, AID485270, AID492963, AID492964, AID492965, AID493232, AID504717, AID504718]; format: functional
[11] = as §1, with “Fluorescence-based” for “Homogeneous time resolved fluorescence (HTRF)-based”, “cell-based high throughput” for “cell-based”, “CHO” for “CHO-K1”; format: functional
[12] = molecular target: T2, Orexin/Hypocretin receptor type 1; assay: Fluorescence-based cell-based high throughput dose response assay for antagonists of the orexin 1 receptor (OX1R; HCRTR1). [Related pubchem assays (depositor defined):AID434989, AID435008, AID463079, AID485270, AID492963, AID492964, AID492965, AID493232, AID504717, AID504718]; format: functional
[13] = molecular target: Glycogen synthase kinase-3 alpha (Homo sapiens, UniProt P49840); assay: Inhibition of Human GSK-3 alpha Activity Measured in Biochemical System Using Microfluidics - 2063-06_Inhibitor_Dose_DryPowder_Activity_Set2. [Related pubchem assays (depositor defined):AID2709]
[14] = system: Streptococcus sp. 'group A'; assay: Streptococcus pyogenes SK(-)GAS viability under kanamycin – luminescence, BacTiterGlo, confirmation, counter-screen for streptokinase expression inhibitor project, dose response (AID 1900); format: functional, organism-based
Streptococcus = assay: GAS UMAA2166 growth inhibition – luminescence, BacTiterGlo, counter-screen for streptokinase expression inhibitor project, dose response (AID 1915); format: functional, organism-based;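 note: potency for reduction of bacterial viability or growth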
[15] = molecular target: Glycogen synthase kinase-3 beta (Homo sapiens, UniProt P49841); assay: Inhibition of Human GSK-3 beta Activity Measured in Biochemical System Using Microfluidics - 2063-05_Inhibitor_Dose_DryPowder_Activity_Set2. [Related pubchem assays (depositor defined):AID2709]
Streptokinase A = molecular target: T3, Streptokinase A (Streptococcus pyogenes serotype M1, UniProt P10520); assay: viability-normalized secreted streptokinase activity reduction – plasminogen activation absorbance, OD405, dose response (AID 1914); format: functional, Streptococcus pyogenes M1 GAS;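 note: secreted streptokinase activity via plasminogen activation per viability signal from cell pellet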
T3 sequence (P10520 whole entry): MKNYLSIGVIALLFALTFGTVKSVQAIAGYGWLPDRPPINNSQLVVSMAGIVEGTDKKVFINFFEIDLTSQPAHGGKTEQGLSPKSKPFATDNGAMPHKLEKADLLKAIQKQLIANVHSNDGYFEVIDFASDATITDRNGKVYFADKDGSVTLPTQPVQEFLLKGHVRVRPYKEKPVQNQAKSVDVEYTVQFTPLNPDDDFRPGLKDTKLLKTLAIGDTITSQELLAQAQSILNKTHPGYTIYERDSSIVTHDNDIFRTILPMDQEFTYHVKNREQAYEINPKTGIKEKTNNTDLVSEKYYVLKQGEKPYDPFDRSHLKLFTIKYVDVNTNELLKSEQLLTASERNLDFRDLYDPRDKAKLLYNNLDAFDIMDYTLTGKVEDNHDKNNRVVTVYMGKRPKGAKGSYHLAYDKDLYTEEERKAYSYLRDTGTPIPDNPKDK

[16] = molecular target: Cyclin-dependent kinase 5/CDK5 activator 1 (Homo sapiens, UniProt Q00535); assay: human CDK5 activity blockade – biochemical, microfluidic mobility shift, dry powder, selectivity assay for GSK-3 alpha inhibitor project, dose response (AID 588430)
[17] = Luminescence Cell-Based Dose Retest to Confirm Inhibitors of Cancer Stem Cells. [Related pubchem assays (depositor defined):AID2717, AID2721]; format: functional; conditions: Homo sapiens
[18] = molecular target: T4, High affinity choline transporter 1 (Homo sapiens, UniProt Q9GZV3); assay: human choline transporter potentiators, potency – cell-based, 10-point CRC, membrane potential dye, dose response (AID 602376); format: functional
T4 sequence (Q9GZV3 whole entry): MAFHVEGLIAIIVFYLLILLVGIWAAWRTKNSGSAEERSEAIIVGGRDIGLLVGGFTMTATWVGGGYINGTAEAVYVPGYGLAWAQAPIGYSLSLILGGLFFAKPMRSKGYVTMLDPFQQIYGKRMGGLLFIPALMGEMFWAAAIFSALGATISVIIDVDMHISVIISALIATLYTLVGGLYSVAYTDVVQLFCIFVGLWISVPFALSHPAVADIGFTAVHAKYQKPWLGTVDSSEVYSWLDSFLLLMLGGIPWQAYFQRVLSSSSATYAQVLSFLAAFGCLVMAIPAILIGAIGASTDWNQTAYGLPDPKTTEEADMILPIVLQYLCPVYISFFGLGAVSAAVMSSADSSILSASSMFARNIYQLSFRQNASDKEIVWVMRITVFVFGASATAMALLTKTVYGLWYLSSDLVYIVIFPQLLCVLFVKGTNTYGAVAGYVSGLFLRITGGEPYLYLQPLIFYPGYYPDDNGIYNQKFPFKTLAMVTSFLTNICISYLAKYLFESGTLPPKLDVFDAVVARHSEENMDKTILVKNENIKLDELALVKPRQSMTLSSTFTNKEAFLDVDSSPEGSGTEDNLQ

T1 sequence (O43614 whole entry): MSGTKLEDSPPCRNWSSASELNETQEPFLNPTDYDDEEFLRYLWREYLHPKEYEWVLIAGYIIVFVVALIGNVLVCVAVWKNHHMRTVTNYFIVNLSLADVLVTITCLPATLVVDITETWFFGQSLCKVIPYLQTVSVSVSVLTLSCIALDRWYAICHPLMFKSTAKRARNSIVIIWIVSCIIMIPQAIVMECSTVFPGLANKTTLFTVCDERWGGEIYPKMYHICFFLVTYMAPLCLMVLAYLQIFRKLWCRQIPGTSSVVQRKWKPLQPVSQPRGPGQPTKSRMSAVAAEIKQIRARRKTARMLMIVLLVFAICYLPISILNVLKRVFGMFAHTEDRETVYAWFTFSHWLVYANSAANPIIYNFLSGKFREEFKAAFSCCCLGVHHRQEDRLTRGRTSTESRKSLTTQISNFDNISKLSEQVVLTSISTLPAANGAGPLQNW
T2 sequence (O43613 whole entry): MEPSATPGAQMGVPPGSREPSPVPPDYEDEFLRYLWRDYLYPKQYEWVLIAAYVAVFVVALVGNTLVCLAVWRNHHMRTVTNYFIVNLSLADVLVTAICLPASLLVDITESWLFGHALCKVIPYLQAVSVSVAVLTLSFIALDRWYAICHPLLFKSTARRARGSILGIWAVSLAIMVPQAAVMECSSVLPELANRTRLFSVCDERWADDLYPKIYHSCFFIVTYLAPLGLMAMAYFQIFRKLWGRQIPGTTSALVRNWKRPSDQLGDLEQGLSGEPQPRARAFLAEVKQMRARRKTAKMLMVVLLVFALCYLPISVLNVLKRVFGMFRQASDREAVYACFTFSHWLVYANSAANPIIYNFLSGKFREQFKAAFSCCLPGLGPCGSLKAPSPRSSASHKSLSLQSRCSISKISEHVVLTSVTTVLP
Sequence of Glycogen synthase kinase-3 alpha (P49840 whole entry): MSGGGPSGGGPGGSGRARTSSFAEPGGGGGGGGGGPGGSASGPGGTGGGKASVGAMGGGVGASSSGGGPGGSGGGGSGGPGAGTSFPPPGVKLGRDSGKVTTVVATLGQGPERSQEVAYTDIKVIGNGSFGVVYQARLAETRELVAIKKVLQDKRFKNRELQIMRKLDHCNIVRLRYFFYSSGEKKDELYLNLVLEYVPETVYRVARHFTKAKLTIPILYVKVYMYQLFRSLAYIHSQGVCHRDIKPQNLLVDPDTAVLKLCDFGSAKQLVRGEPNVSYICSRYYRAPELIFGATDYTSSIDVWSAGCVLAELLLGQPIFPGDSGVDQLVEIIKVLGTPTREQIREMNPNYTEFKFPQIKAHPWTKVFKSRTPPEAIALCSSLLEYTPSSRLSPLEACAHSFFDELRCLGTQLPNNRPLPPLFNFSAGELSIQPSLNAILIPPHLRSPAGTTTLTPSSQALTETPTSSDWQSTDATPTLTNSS
Sequence of DNA dC->dU-editing enzyme APOBEC-3A (P31941 whole entry): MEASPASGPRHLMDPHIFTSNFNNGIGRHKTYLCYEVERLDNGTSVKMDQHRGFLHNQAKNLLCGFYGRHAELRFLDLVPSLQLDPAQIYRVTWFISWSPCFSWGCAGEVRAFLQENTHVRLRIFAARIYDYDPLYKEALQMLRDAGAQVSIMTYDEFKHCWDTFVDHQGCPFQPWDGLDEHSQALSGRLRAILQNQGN
Sequence of MAP kinase-activated protein kinase 3 (Q16644 whole entry): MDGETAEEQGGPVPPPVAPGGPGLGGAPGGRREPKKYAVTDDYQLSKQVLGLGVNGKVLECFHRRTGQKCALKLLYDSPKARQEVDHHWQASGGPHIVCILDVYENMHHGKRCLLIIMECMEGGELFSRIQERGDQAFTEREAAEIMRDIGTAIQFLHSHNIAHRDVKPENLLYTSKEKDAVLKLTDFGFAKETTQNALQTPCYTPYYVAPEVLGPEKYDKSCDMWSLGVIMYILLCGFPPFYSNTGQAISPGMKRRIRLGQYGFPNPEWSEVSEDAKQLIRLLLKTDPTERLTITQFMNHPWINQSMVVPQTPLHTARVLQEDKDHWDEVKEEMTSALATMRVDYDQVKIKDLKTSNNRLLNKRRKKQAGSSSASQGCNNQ
Sequence of G protein-coupled receptor kinase 5 (P34947 whole entry): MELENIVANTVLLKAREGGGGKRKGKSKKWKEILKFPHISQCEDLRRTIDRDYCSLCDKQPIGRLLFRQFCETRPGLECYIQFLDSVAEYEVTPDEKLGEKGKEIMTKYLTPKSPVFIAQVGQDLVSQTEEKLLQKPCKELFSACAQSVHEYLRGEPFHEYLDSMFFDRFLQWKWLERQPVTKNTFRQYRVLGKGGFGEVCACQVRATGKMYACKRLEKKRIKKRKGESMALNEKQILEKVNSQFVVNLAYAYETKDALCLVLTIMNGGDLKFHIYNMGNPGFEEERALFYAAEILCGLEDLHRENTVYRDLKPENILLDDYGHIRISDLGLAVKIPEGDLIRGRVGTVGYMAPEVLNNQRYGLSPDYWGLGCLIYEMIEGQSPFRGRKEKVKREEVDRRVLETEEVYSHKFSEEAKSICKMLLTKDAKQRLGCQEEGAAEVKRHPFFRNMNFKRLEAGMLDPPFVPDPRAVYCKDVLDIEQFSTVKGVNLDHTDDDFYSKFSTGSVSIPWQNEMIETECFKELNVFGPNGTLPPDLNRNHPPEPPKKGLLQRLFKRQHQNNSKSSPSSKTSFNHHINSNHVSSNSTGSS
Sequence of Cyclin-dependent kinase 5/CDK5 activator 1 (Q00535 whole entry): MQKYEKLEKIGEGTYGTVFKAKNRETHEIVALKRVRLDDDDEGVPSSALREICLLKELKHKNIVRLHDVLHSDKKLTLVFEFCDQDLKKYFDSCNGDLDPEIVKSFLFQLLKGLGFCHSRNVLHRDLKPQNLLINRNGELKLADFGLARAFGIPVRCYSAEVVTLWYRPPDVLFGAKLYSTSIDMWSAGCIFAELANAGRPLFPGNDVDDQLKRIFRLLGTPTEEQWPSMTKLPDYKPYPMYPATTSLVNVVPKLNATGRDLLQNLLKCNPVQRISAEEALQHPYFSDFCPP
Sequence of Cyclin-dependent kinase 5/CDK5 activator 1 (Q15078 whole entry, further chain): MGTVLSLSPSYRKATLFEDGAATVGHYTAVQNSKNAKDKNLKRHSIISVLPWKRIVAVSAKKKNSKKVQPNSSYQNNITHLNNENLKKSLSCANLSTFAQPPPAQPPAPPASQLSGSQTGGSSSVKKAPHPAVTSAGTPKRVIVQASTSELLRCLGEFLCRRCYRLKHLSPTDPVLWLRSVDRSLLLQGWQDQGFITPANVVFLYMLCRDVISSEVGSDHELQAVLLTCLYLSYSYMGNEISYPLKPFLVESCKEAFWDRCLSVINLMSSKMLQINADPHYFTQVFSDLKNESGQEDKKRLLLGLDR
Sequence of DNA dC->dU-editing enzyme APOBEC-3G (Q9HC16 whole entry): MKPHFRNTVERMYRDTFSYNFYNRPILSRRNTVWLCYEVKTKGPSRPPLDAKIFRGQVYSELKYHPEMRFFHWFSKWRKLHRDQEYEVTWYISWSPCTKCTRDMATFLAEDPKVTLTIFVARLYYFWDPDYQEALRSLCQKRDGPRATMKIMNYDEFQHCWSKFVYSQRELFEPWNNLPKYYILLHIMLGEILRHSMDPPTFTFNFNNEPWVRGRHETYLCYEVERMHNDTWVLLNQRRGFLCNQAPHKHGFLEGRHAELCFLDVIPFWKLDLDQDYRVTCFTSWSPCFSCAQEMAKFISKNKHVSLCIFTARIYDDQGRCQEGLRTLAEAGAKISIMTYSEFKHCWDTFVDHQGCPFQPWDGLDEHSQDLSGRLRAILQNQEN
Sequence of Glycogen synthase kinase-3 beta (P49841 whole entry): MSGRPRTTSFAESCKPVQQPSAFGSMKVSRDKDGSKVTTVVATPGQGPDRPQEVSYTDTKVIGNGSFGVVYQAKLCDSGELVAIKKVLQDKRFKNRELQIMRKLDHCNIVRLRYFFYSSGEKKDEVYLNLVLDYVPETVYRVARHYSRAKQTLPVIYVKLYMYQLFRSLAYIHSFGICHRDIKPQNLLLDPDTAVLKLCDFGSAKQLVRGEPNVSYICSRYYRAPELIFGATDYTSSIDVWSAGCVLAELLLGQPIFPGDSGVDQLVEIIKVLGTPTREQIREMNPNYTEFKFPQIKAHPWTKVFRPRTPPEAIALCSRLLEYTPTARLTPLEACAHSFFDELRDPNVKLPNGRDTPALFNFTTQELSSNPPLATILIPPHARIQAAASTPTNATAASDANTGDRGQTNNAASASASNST

With `CCn1c(=O)c2ccccc2n2c(COc3ccc4c(C(F)(F)F)cc(=O)oc4c3)nnc12` the IC50 [1] was > 99 µM (inactive) and the IC50 [2] was > 99 µM (inactive).
In the case of `O=C(O)c1ccc(Nc2ncc3c(n2)-c2ccc(Cl)cc2C(c2c(F)cccc2F)=NC3)cc1` [MLN-8054], the Ki [3] is reported as 1 µM (active), the Ki [4] is reported as > 10 µM (inactive) and the Ki [5] is reported as > 7.94 µM (inactive). For the same compound, the Ki [6] was > 3.16 µM (inactive) and the Ki [7] was > 10 µM (inactive).
With `CCc1cc2c(SCC(=O)N(CC)c3c(N)n(Cc4ccccc4)c(=O)[nH]c3=O)ncnc2s1` the IC50 (CHO-K1) was > 66.2 µM (inactive), the IC50 (Orexin receptor type 2 [8]) was 1.71 µM (active) and the IC50 (Orexin receptor type 2 [9]) was 31.5 µM (inactive). The IC50 [10] was 0.34 µM (active), the IC50 [11] was > 49.8 µM (inactive) and the IC50 [12] was 6.12 µM (active).
With `Nc1nc(Nc2ccccc2)nc(NC2CCCCC2)c1[N+](=O)[O-]` the AC50 [13] was 2.6 µM (active), the EC50 [14] was 6.85 µM (active) and the EC50 (Streptococcus) was 8.07 µM (active). The AC50 [15] was 1.04 µM (active), the EC50 (Streptokinase A) was > 150 µM (not active) and the AC50 [16] was 2.36 µM (active). For the same compound, the AC50 [17] was 4.62 µM (active).
For `c1ccc(Cn2c[n+](Cc3ccccc3)c3ccccc32)cc1`, the EC50 [18] was 5.76 µM (active).
